Earlier results in patent US20040105900A1, “Extracts derived from Pueraria mirifica, Butea superba and/or Mucuna collettii and extraction thereof” (CHEIL JEDANG CORPORATION, priority 1999, published 2004).

System: skin of menopausal females
Settings: after 6 months of application to the skin

estrogen
improvement in the depth of wrinkles: 60%
